For data set [1], the system named is Plasmodium berghei. Kind of data set: Antimalarial activity against Plasmodium berghei KBG 173 infected in ICR/HA Swiss mouse assessed as increase in mean survival time at 40 mg/kg, sc administered 72 hrs post infection. The format is functional. The following applies: route subcutaneous.
Data set [2] deals with Mus musculus. As to the kind of experiment: Toxicity in ICR/HA Swiss mouse infected with Plasmodium berghei KBG 173 assessed as mortality at 640 mg/kg, sc administered 72 hrs post infection measured for 6 days. The format is organism-based. Also noted: dose 640 mg/kg, route subcutaneous. The note with it: in vivo, 144 h.
The test system of data set [3] is Plasmodium berghei. Kind of data set: Antimalarial activity against Plasmodium berghei KBG 173 infected in ICR/HA Swiss mouse assessed as increase in mean survival time at 80 mg/kg, sc administered 72 hrs post infection. The format is functional. The note with it: route subcutaneous.
For data set [4], the system named is Plasmodium berghei. Kind of data set: Antimalarial activity against Plasmodium berghei KBG 173 infected in ICR/HA Swiss mouse assessed as increase in mean survival time at 160 mg/kg, sc administered 72 hrs post infection. In kind it is functional. The note with it: route subcutaneous.
Data set [5] deals with Plasmodium berghei. Kind of data set: Antimalarial activity against Plasmodium berghei KBG 173 infected in ICR/HA Swiss mouse assessed as increase in mean survival time at 320 mg/kg, sc administered 72 hrs post infection. The note with it: route subcutaneous. The format is functional.
Data set [6] concerns Plasmodium berghei. As to the kind of experiment: Antimalarial activity against Plasmodium berghei KBG 173 infected in ICR/HA Swiss mouse assessed as increase in mean survival time at 640 mg/kg, sc administered 72 hrs post infection. The note with it: route subcutaneous. The format is functional.
Data set [7] deals with Plasmodium berghei. As to the kind of experiment: Antimalarial activity against Plasmodium berghei KBG 173 infected in ICR/HA Swiss mouse at 40 to 640 mg/kg, sc administered 72 hrs post infection. In kind it is functional, organism-based.

The source made the active and inactive calls. The rule behind the calls is not given here.

The values that follow come from ChEMBL document CHEMBL3244320, “2-Acetylpyridine thiosemicarbazones. 1. A new class of potential antimalarial agents” (J Med Chem, 1979).

For the molecule `Br.CCN(CC)CCCC(C)NC(=S)N/N=C(\C)c1ccccn1` (configuration not stated), the MST in data set [1] is 0.3 days. Further, the Activity entry in data set [2] is “Toxic”.
For the molecule `COc1cccc(CNC(=S)N/N=C(\C)c2ccccn2)c1`, the MST in data set [1] turned out to be 0.3 days; in data set [3], 0.3 days; in data set [4] it was 0.9 days; in data set [5] it was 4.5 days; in data set [6] it was 5.9 days.
Turning to `C/C(=N\NC(=S)NCc1ccc(C)cc1)c1ccccn1`, the MST amounted to 0.1 days in data set [1], 1.7 days in data set [3], 4.3 days in data set [4] and 5.7 days in data set [5].
For `COc1cccc(NC(=S)N/N=C(\C)c2ccccn2)c1`, the MST in data set [1] was 0.3 days; in data set [3] it was 0.4 days; in data set [4] it was 8.1 days; in data set [5], 4.3 days; in data set [6], 9.6 days.
Consider `C/C(=N\NC(=S)NC12CC3CC(CC(C3)C1)C2)c1cccnc1`, for which, in data set [7], the result was inactive.
Turning to `C/C(=N\NC(=S)Nc1ccccc1C)c1ccccn1`, the MST in data set [1] came out at 0.1 days; in data set [3], 0.5 days; in data set [4], 0.9 days; in data set [5], 5.1 days; in data set [6], 9.9 days.
Regarding `C/C(=N\NC(=S)Nc1ccccc1)c1ccncc1`, the result in data set [7] was inactive.
As to `C/C(=N\NC(=S)NC12CC3CC(CC(C3)C1)C2)c1ccncc1`, the outcome in data set [7] was inactive.
In the case of `C/C(=N\NC(=S)Nc1ccccn1)c1ccncc1`, in data set [7], the result was inactive.
In the case of `C/C(=N\NC(=S)Nc1ccccc1[N+](=O)[O-])c1ccccn1`, the MST in data set [1] amounted to 0.1 days; in data set [3], 0.1 days; in data set [4], 0.9 days; in data set [5], 5.7 days; in data set [6], 4.5 days.
As to `C/C(=N\NC(=S)Nc1ccc(Cl)cc1)c1ccccn1`, the MST was 0.5 days in data set [1]; 1.5 days in data set [3]; 1.7 days in data set [4]; 4.3 days in data set [5]; 8.3 days in data set [6].
For `C/C(=N\NC(=S)Nc1ccccn1)c1ccccn1`, the MST is 1.5 days in data set [1]; 2.7 days in data set [3]; 4.5 days in data set [4]; 6.5 days in data set [5]; 8.1 days in data set [6].
For the molecule `COc1ccc(CNC(=S)N/N=C(\C)c2ccccn2)cc1`, the MST in data set [1] stood at 0.3 days; in data set [3], 1.7 days; in data set [4], 2.9 days; in data set [5], 5.9 days; in data set [6], 7.9 days.
`COc1ccccc1CNC(=S)N/N=C(\C)c1ccccn1`: the MST stood at 0.1 days in data set [1]; 0.3 days in data set [3]; 1.3 days in data set [4]; 3.5 days in data set [5]; 6.9 days in data set [6].
Take `C/C(=N\NC(=S)NCCO)c1ccccn1`: the results for the MST in data set [1] and in data set [4] were 0.3 days and 0.5 days, respectively. In data set [2], the Activity result is “Toxic”.
`C/C(=N\NC(=S)NCc1cccc(Cl)c1)c1ccccn1`: the MST in data set [3] is 0 days; in data set [4], 1.6 days; in data set [5] it was 0 days; in data set [6] it was -0.4 days.
On to `C/C(=N\NC(=S)Nc1c(C)cccc1C)c1ccccn1`, for which the MST in data set [1] was found to be 0.4 days; in data set [3], 0.4 days; in data set [4], 2 days; in data set [5], 5.8 days; in data set [6] it was 11.4 days.
With `C/C(=N\NC(=S)NCc1ccc(Cl)cc1)c1ccccn1`, the MST amounted to 0.5 days in data set [1]; 0.5 days in data set [3]; 2.1 days in data set [4]; 4.3 days in data set [5]; 6.9 days in data set [6].
`C=CCNC(=S)N/N=C(\C)c1ccccn1`: the MST in data set [1] worked out at 0.5 days; in data set [3], 2.3 days; in data set [4], 3.1 days; in data set [5], 3 days. The Activity entry in data set [2] is “Toxic”.
Take `C/C(=N\NC(=O)Nc1ccccc1)c1ccccn1`: in data set [7], the result was inactive.
For `C/C(=N\NC(=S)Nc1ccc(C(C)C)cc1)c1ccccn1`, the MST in data set [1] is 0.5 days; in data set [3], 1.9 days; in data set [4], 2.1 days; in data set [5], 5.9 days; in data set [6] it was 5.5 days.
For the molecule `CC/C(=N\NC(=S)NC12CC3CC(CC(C3)C1)C2)c1ccccn1`, the MST in data set [3] was found to be 0.3 days; in data set [4], 3.7 days; in data set [5], 6.3 days; in data set [6] it was 9.1 days.
In the case of `Br.C/C(=N\NC(=S)NCC(C)N(C)C)c1ccccn1` (configuration not stated), the MST in data set [1] was 0.1 days. The Activity entry in data set [2] is recorded as “Toxic”.
On to `C/C(=N\NC(=S)NC(C)c1ccc(F)cc1)c1ccccn1` (configuration not stated), for which the MST was determined as 1.1 days in data set [1], 5.5 days in data set [3], 8.5 days in data set [4] and 5.2 days in data set [5].
Regarding `CC/C(=N\NC(=S)Nc1ccccc1)c1ccccn1`, the MST in data set [1] worked out at 0 days; in data set [3], 1.2 days; in data set [4], 2.6 days.
Take `C/C(=N\NC(=S)Nc1ccccc1)c1cccnc1`: the outcome in data set [7] was inactive.
Regarding `C/C(=N\NC(=S)NC(C)(C)CC(C)(C)C)c1ccccn1`, the MST amounted to 1.1 days in data set [1]; 1.3 days in data set [3]; 0.9 days in data set [4]; 2.9 days in data set [5]; 8.7 days in data set [6].
Consider `C/C(=N\NC(=S)Nc1ccccc1)c1ccccn1`, for which the figures for the MST in data set [1], in data set [3] and in data set [4] were 3.1 days, 4.7 days and 11.1 days, respectively.
On to `C/C(=N\NC(=S)NC12CC3CC(CC(C3)C1)C2)c1ccccn1`, for which the MST in data set [1] turned out to be 0.7 days; in data set [3] it was 1.1 days; in data set [4], 3.7 days; in data set [5], 8.5 days; in data set [6], 9.2 days.
As for `CCc1ccccc1NC(=S)N/N=C(\C)c1ccccn1`, the MST in data set [1] was 0.3 days; in data set [3] it was 0.3 days; in data set [4] it was 0.7 days; in data set [5], 3.1 days; in data set [6], 5.1 days.
Regarding `C/C(=N\NC(=S)NCCc1ccccc1)c1ccccn1`, the MST in data set [1] is -0.2 days; in data set [3], 0.6 days; in data set [4], 2 days; in data set [5], 6.6 days; in data set [6], 8.8 days.
As for `C/C(=N\NC(=S)Nc1ccccn1)c1cccnc1`, the result in data set [7] was inactive.
On to `C/C(=N\NC(=S)NCc1cccc(F)c1)c1ccccn1`, for which the MST in data set [1] was 0.4 days; in data set [3], 1.4 days; in data set [4] it was 3.4 days; in data set [5] it was 5.8 days; in data set [6], 9.4 days.
Consider `C/C(=N\NC(=S)Nc1ccc(F)cc1)c1ccccn1`, for which the MST is 1.3 days in data set [1], 3.7 days in data set [3], 3.9 days in data set [4] and 7.7 days in data set [5].
On to `C/C(=N\NC(=S)Nc1cccc(Cl)c1)c1ccccn1`, for which the MST is 0.3 days in data set [1]; 0.3 days in data set [3]; 2.5 days in data set [4]; 5.1 days in data set [5]; 7.1 days in data set [6].
Turning to `COc1ccccc1NC(=S)N/N=C(\C)c1ccccn1`, the MST in data set [1] turned out to be 0.1 days; in data set [3], 0.4 days; in data set [4] it was 2 days; in data set [5] it was 4.6 days; in data set [6], 6.6 days.
Turning to `C/C(=N\NC(=S)Nc1ccccc1Cl)c1ccccn1`, the MST in data set [1] amounted to 0.5 days; in data set [3] it was 0.5 days; in data set [4] it was 2.3 days; in data set [5], 6.1 days; in data set [6], 8.1 days.
Consider `CCc1ccc(NC(=S)N/N=C(\C)c2ccccn2)cc1`, for which the MST in data set [1] turned out to be 0.3 days; in data set [3] it was 1.5 days; in data set [4], 2.1 days; in data set [5], 3.1 days; in data set [6] it was 5.7 days.
As to `C/C(=N\NC(=S)NCc1ccc(C)cc1C)c1ccccn1`, the MST in data set [1] was 0.5 days; in data set [3], 0.1 days; in data set [4], 3.1 days; in data set [5], 6.1 days; in data set [6], 8.9 days.
For the molecule `CC/C(=N\NC(=S)Nc1ccccc1Cl)c1ccccn1`, the MST in data set [1] came to 0.1 days; in data set [4], 0.1 days; in data set [6], 0.3 days.
For `C/C(=N\NC(=S)NCc1ccc(C)c(C)c1)c1ccccn1`, the MST was 0.3 days in data set [1], 0.1 days in data set [4] and 2.1 days in data set [6].
Consider `C/C(=N\NC(=S)NCc1ccccc1Cl)c1ccccn1`, for which the MST in data set [1] worked out at 0.3 days; in data set [4], 0.3 days; in data set [6], 1.9 days.
In the case of `CC/C(=N\NC(=S)NC(c1ccccc1)(c1ccccc1)c1ccccc1)c1ccccn1`, the results for the MST in data set [1], in data set [4] and in data set [6] were 0.1 days, 0.1 days and 0.3 days, respectively.
